Measurements as given in patent US20150329918A1, “JAGGED1 AS A MARKER AND THERAPEUTIC TARGET FOR BREAST CANCER BONE METASTASIS” (The Trustees of Princeton University, priority 2011, published 2015).

How the values were obtained:
[1] = test system: Notch target genes (Hes1, Hey1, HeyL and TGFβ1); test: qRT-PCR of Notch target genes in MC3T3-E1 osteoblasts FACS-separated from cocultures; assay type: cell-based, mouse; settings: osteoblasts FACS-separated from JAG1 OE coculture; FIG. 7B
Procedure: For gene expression analysis, MC3T3-E1 cells were grown to confluence in 10 cm culture dishes. The 2×10^5 GFP+ control or JAG1 OE cells were seeded onto the plate in osteoblast media. Cell sorting was performed to purify the GFP-negative MC3T3-E1 osteoblasts 5 days after initial coculture. RNA from FACS-separated MC3T3-E1 cells was collected in RLT lysis buffer, extracted with RNeasy Mini Kit (QIAGEN), and subjected to quantitative RT-PCR.
RNA from in vitro cultured cells or flow cytometry-separated cells was collected in RLT lysis buffer and extracted with RNeasy mini kit (Qiagen). RNA extraction from in vivo tissue samples was performed using Trizol (Invitrogen) according to the manufacturer's protocol. cDNA synthesis of RNA was performed using Superscript III First-Strand (Invitrogen). Quantitative RT-PCR was performed using Power Syber Green PCR Master Mix (Applied Biosystems) with the ABI Prism 7900HT thermocycler (Applied Biosystems) according to the manufacturer's protocol. A standard curve for each gene was generated by serial dilutions of a standard. Values were then normalized by the amount of GAPDH or β-actin in each sample. For in vivo samples, species-specific primers were employed for gene expression analysis in the tumor compartment (human) versus stroma compartment (mouse).

[2] = test system: SCP28 tumor cells cocultured with MC3T3-E1 osteoblasts; test: Osteoblast coculture tumor cell quantification by luciferase assay; assay type: cell-based, human; settings: luciferase assay after 6 days; MRK-003 1 μM or 5 μM; anti-IL-6 0.5 and 1.0 μg/ml
Procedure: MC3T3-E1 cells were seeded at 2×10^5 cells/well in 12-well plates. After confluence was achieved, luciferase/GFP-labeled (GFP+) control and JAG1 OE cells were added at 1×10^4 cells/well in triplicate and treated with DMSO or 1 μM MRK-003. Media supplemented with appropriate drugs were changed every 2 days. After 6 days the coculture was subjected to a luciferase assay to selectively quantify the number of tumor cells. These values were normalized against luciferase quantification of 12-well plates seeded with tumor cells alone.
For transfection experiments, MC3T3-E1 osteoblasts were seeded at 2×10^5 cells/well in 12-well plates and grown to 95% confluence. […] Following 6 days, the coculture was lysed and subjected to a luciferase assay to selectively quantify the number of tumor cells. For gene expression analysis, RNA from cocultures was collected in RLT lysis buffer, extracted with RNeasy mini kit (Qiagen), and subjected to quantitative RT-PCR.
For in vitro experiments, GSI-IX (Calbiochem) and TGFβ Receptor 1 (EMD Biosciences 616451) were dissolved in DMSO. […] RNA and protein were collected and analyzed for JAGGED1 expression as described above. […]

[3] = test system: MDA231 sublines (SCP28 tumor cells); test: Proliferation of tumor cells cultured alone; assay type: cell-based, human

O=S1(=O)N[C@@]2(CN1CC(F)(F)F)[C@@H]1CC[C@H]2Cc2ccc(/C=C/CN3CCC(C(F)(F)F)CC3)cc2C1 [MRK-003]
Notch target genes (Hes1, Hey1, HeyL and TGFβ1) mRNA in osteoblasts [1]: downregulated
growth advantage of JAG1 OE tumor cells in osteoblast coculture [2]: abolished
proliferative ability of tumor cells cultured alone ([3]; JAG1 OE SCP28 without osteoblasts, FIGS. 9B-9C): did not affect
proliferation assays of MDA231 sublines, control vs treated ([3]; relatively low concentrations sufficient to inhibit Notch in bone-specific cells): no difference
